The source of these data is patent US20260085073A1, “PYRAZOLYLCARBOXAMIDE COMPOUNDS AND THEIR USE IN THERAPY” (Hotspot Therapeutics, Inc., priority 2022, published 2026).

For this assay, the target named is T1, MALT1 (Homo sapiens, UniProt Q9UDY8).
T1 construct: Avi-tagged FL MALT-1 (Pharmaron, stored at −70° C.); Avi-tag
T1 sequence (Q9UDY8 1-824): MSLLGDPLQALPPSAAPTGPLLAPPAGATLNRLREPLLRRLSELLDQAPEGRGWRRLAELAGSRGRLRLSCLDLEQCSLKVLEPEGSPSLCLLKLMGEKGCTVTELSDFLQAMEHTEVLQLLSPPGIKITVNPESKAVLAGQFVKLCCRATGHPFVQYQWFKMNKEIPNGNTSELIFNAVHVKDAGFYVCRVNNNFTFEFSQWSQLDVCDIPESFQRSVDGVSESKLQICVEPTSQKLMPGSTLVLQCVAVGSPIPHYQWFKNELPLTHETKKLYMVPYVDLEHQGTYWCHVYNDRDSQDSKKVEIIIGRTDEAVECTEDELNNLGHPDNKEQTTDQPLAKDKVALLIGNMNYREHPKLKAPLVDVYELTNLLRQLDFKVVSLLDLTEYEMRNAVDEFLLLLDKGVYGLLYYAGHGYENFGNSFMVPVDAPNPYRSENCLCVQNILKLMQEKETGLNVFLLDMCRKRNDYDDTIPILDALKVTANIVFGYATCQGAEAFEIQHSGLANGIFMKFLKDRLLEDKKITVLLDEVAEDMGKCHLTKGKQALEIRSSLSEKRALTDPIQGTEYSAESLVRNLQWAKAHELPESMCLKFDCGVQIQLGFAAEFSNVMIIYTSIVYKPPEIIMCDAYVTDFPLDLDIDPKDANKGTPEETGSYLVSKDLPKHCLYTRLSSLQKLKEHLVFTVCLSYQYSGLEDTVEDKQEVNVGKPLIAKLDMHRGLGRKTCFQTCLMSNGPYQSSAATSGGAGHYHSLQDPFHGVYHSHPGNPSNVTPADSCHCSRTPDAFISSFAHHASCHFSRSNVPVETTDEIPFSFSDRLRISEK
In words: MALT1 inhibition assay (MALT-1 Fluorogenic Peptide Cleavage Assay, Ac-LRSR-AMC substrate). The class given is biochemical. As to conditions: Avi-tagged FL MALT-1, 30 min pre-incubation, 90 min reaction at room temperature, fluorescence intensity. The procedure, abridged: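 Full-length Avi-tagged MALT1 pre-incubated 30 min at room temperature with compounds (2% DMSO final) in HEPES pH 6.89, sodium citrate, TCEP, EDTA, CHAPS buffer. Ac-LRSR-AMC added from 50 µM (Km) or […] working stocks; 90 min at room temperature, AMC fluorescence (ex 342/em 441 nm); IC50 from % inhibition curves.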

The IC50 is the concentration that inhibits the measured activity by half. `CN(C)c1cc(-c2nn(C)c(C(=O)Nc3ccnc(C(F)(F)F)c3)c2C(F)(F)F)ccn1` [Compound I-76] came in with a 50% inhibitory concentration (IC50) of more than 10000 nM.

For the molecule `Cn1nc(-c2cccn3nnnc23)c(C(F)(F)F)c1C(=O)Nc1ccnc(C(F)(F)F)c1` [Compound I-102], the IC50 is 2500 to 10000 nM.

The molecule `Cn1nc(-c2cccc3occc23)c(C(F)(F)F)c1C(=O)Nc1cnc(-n2nccn2)c(Cl)c1` [Compound I-145] yielded a half-inhibitory concentration (IC50) of less than 500 nM.

The molecule `Cn1nc(-c2ccc(=O)n(C)c2)c(C(F)(F)F)c1C(=O)Nc1ccnc(C(F)(F)F)c1` [Compound I-8] registered an IC50 of 2500 to 10000 nM.

For the molecule `Cn1nc(/C=C/c2ccccc2)c(C(F)(F)F)c1C(=O)Nc1ccnc(C(F)(F)F)c1` [Compound I-32], the half-inhibitory concentration (IC50) was more than 10000 nM.

`Cn1nc(-c2cnc3cccnn23)c(C(F)(F)F)c1C(=O)Nc1ccnc(C(F)(F)F)c1` [Compound I-16] yielded an IC50 of more than 10000 nM.

`Cn1nc(-c2cccc3nscc23)c(C(F)(F)F)c1C(=O)Nc1cnc(-n2nccn2)c(Cl)c1` [Compound I-285] displayed an IC50 of less than 500 nM.

`Cn1nc(-c2cccc3ncn(C)c23)c(C(F)(F)F)c1C(=O)Nc1ccnc(C(F)(F)F)c1` [Compound I-4] had a half-inhibitory concentration (IC50) of less than 500 nM.

Consider `Cn1nc(-c2cc(O)ccc2Cl)c(C(F)(F)F)c1C(=O)Nc1ccnc(C(F)(F)F)c1` [Compound I-75], for which the IC50 is 500 to 2500 nM.

Molecule `Cn1nc(-c2ccc(C#N)cc2Cl)c(C(F)(F)F)c1C(=O)Nc1cnc(-n2nccn2)c(Cl)c1` [Compound I-36] came in with a concentration for half-maximal inhibition (IC50) of less than 500 nM.

Take `Cn1nc(-c2c[nH]c3cnccc23)c(C(F)(F)F)c1C(=O)Nc1ccnc(C(F)(F)F)c1` [Compound I-124]: the IC50 is 500 to 2500 nM.

In turn, `Cn1nc(-c2ccc(C#N)cc2Cl)c(C(F)(F)F)c1C(=O)Nc1cnc(-n2nccn2)c(C#N)c1` [Compound I-35] returned a half-inhibitory concentration (IC50) of less than 500 nM.

`CN(c1ccccc1)c1nn(C)c(C(=O)Nc2ccnc(C(F)(F)F)c2)c1C(F)(F)F` [Compound I-209] gave an IC50 of 500 to 2500 nM.

`Cc1ccc2ncsc2c1-c1nn(C)c(C(=O)Nc2ccnc(C(F)(F)F)c2)c1C(F)(F)F` [Compound I-223] displayed a half-maximal inhibitory concentration (IC50) of 500 to 2500 nM.

`Cc1cn2c(-c3nn(C)c(C(=O)Nc4ccnc(C5CC5)c4)c3C(F)(F)F)cccc2n1` [Compound I-283] yielded a 50% inhibitory concentration (IC50) of more than 10000 nM.

For `Cn1nc(-c2ccc(C#N)cc2Cl)c(C(F)(F)F)c1C(=O)Nc1ccnc(C(F)(F)F)c1` [Compound I-41], the IC50 was less than 500 nM.

Regarding `Cc1ccc2ncccc2c1-c1nn(C)c(C(=O)Nc2ccnc(C(F)(F)F)c2)c1C(F)(F)F` [Compound I-55], the half-inhibitory concentration (IC50) was 500 to 2500 nM.

Consider `Cn1nc(-c2nccc3ccsc23)c(C(F)(F)F)c1C(=O)Nc1ccnc(C(F)(F)F)c1` [Compound I-237], for which the concentration for half-maximal inhibition (IC50) was 500 to 2500 nM.

Regarding `Cn1nc(-c2cnn3ccncc23)c(C(F)(F)F)c1C(=O)Nc1ccnc(C(F)(F)F)c1` [Compound I-74], the IC50 is more than 10000 nM.

Molecule `Cn1nc(-c2nccn3ccnc23)c(C(F)(F)F)c1C(=O)Nc1ccnc(C(F)(F)F)c1` [Compound I-111] registered an IC50 of 500 to 2500 nM.

`Cn1cc2c(-c3nn(C)c(C(=O)Nc4ccnc(C(F)(F)F)c4)c3C(F)(F)F)cccc2n1` [Compound I-62] displayed an IC50 of 2500 to 10000 nM.

On to `Cn1nc(-c2cccc3c2OCC3)c(C(F)(F)F)c1C(=O)Nc1ccnc(C(F)(F)F)c1` [Compound I-158, 3-(2,3-dihydrobenzofuran-7-yl)-1-methyl-4-(trifluoromethyl)-N-(2-(trifluoromethyl)pyridin-4-yl)-1H-pyrazole-5-carboxamide], for which the IC50 was less than 500 nM.

In turn, `Cn1nc(-c2cccc3ncccc23)c(C(F)(F)F)c1C(=O)Nc1cnc(-n2nccn2)c(C(F)(F)F)c1` [Compound I-122] returned an IC50 of less than 500 nM.

`Cc1ccc(-c2nn(C)c(C(=O)Nc3ccnc(C(F)(F)F)c3)c2C(F)(F)F)n2ccnc12` [Compound I-238] had an IC50 of 2500 to 10000 nM.

In turn, `Cn1nc(-c2cn(C)c3c(=O)[nH]ccc23)c(C(F)(F)F)c1C(=O)Nc1ccnc(C(F)(F)F)c1` [Compound I-112] gave an IC50 of 2500 to 10000 nM.

With `O=C(Nc1cnc(-n2nccn2)c(Cl)c1)c1c(C(F)(F)F)c(-c2ccccc2)nn1C1COC1` [Compound I-176], the IC50 was 2500 to 10000 nM.

`O=C1c2c(C(F)(F)F)c(-c3ccccc3)nn2CCN1c1ccnc(C(F)(F)F)c1` [Compound I-184] registered an IC50 of more than 10000 nM.

In turn, `Cn1nc(-c2c(F)ccc3nc(N)sc23)c(C(F)(F)F)c1C(=O)Nc1ccnc(C(F)(F)F)c1` [Compound I-251] yielded an IC50 of 500 to 2500 nM.

For the molecule `Cn1nc(-c2cccc3c2COC3)c(C(F)(F)F)c1C(=O)Nc1ccnc(C(F)(F)F)c1` [Compound I-95], the IC50 is 500 to 2500 nM.

On to `Cn1nc(-c2cnc3cnccn23)c(C(F)(F)F)c1C(=O)Nc1ccnc(C(F)(F)F)c1` [Compound I-225], for which the half-inhibitory concentration (IC50) was more than 10000 nM.

The molecule `Cn1nc(-c2cccc3c2CNC3=O)c(C(F)(F)F)c1C(=O)Nc1ccnc(C(F)(F)F)c1` [Compound I-65] registered a half-inhibitory concentration (IC50) of less than 500 nM.

Molecule `Cn1nc(-c2cccc3cnn(C)c23)c(C(F)(F)F)c1C(=O)Nc1ccnc(C(F)(F)F)c1` [Compound I-61] showed an IC50 of 500 to 2500 nM.

Consider `Cn1nc2c(c1C(=O)Nc1cnc(-n3nccn3)c(Cl)c1)CCc1ccccc1-2` [Compound I-259], for which the IC50 was more than 10000 nM.

`Cn1nc(-c2ccccc2CC(F)(F)F)cc1C(=O)Nc1ccnc(C(F)(F)F)c1` [Compound I-203, 1-methyl-3-(2-(2,2,2-trifluoroethyl)phenyl)-N-(2-(trifluoromethyl)pyridin-4-yl)-1H-pyrazole-5-carboxamide]: the IC50 fell in the range of 2500 to 10000 nM.

`Cn1nc(COc2ccccc2)c(C(F)(F)F)c1C(=O)Nc1ccnc(C(F)(F)F)c1` [Compound I-208] yielded a half-maximal inhibitory concentration (IC50) of 2500 to 10000 nM.

Regarding `Cn1nc(-c2cccc3nc(N)sc23)c(C(F)(F)F)c1C(=O)Nc1cnc(-n2nccn2)c(Cl)c1` [Compound I-299, 3-(2-aminobenzo[d]thiazol-7-yl)-N-(5-chloro-6-(2H-1,2,3-triazol-2-yl)pyridin-3-yl)-1-methyl-4-(trifluoromethyl)-1H-pyrazole-5-carboxamide], the half-inhibitory concentration (IC50) is less than 500 nM.

`O=C(Nc1cnc(-n2nccn2)c(Cl)c1)c1cc(-c2ccccc2)nn1C(F)F` [Compound I-181] returned a half-maximal inhibitory concentration (IC50) of 2500 to 10000 nM.

In turn, `Cn1nc(-c2ccnc3c(F)cccc23)c(C(F)(F)F)c1C(=O)Nc1ccnc(C(F)(F)F)c1` [Compound I-110] yielded an IC50 of 500 to 2500 nM.

`O=C(Nc1ccnc(C(F)(F)F)c1)c1c(C(F)(F)F)c(-c2ccccc2)nn1C1COC1` [Compound I-178] returned a concentration for half-maximal inhibition (IC50) of more than 10000 nM.

Molecule `Cn1nc([C@@H]2C[C@H]2c2ccccc2)c(C(F)(F)F)c1C(=O)Nc1ccnc(C(F)(F)F)c1` (racemic) [Compound I-40] showed an IC50 of more than 10000 nM.

For `COCCn1nc(-c2ccccc2)c(C(F)(F)F)c1C(=O)Nc1cnc(-n2nccn2)c(C#N)c1` [Compound I-174], the IC50 was in the range of 500 to 2500 nM.
